Measured values from the supplement of paper PMC8671470.

Experiments:
Conditions in all cases: 72 h
MV4-11 [1] = test system: MV4-11
How it was run: (§1)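 The IC50 was derived from log-logistic dose–response fitting. Each of fifteen myeloid leukaemia cell lines, seeded in RPMI 1640 within its linear growth range, was exposed in 384-well plates to five tenfold doses (1 to 10,000 nM) in duplicate for 72 h at 37 °C and 5% CO2. Luminescent ATP viability readings were normalised to vehicle and to a positive control at 10 µM before four-parameter curve fitting.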

HL-60 [2] = test system: HL-60
How it was run: as §1

BV-173 = test system: BV-173
How it was run: as §1

SHI-1 [3] = test system: SHI-1
How it was run: as §1

K-562 [4] = test system: K-562
How it was run: as §1

THP-1 [5] = test system: THP-1
How it was run: as §1

KCL-22 [6] = test system: KCL-22
How it was run: as §1

KU-812 [7] = test system: KU-812
How it was run: as §1

MOLM-13 [8] = test system: MOLM-13
How it was run: as §1

ML-2 [9] = test system: ML-2
How it was run: as §1

Mono-Mac-6 = test system: Mono-Mac-6
How it was run: as §1

NOMO-1 [10] = test system: NOMO-1
How it was run: as §1

HEL [11] = test system: HEL
How it was run: as §1

LAMA-84 = test system: LAMA-84
How it was run: as §1

KG-1 [12] = test system: KG-1
How it was run: as §1

HL-60 [13] = test: cell viability (% survival relative to DMSO control); higher = less cytotoxic
How it was run: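 Area under the curve, where listed, was derived from four-parameter log-logistic fits with drc and PharmacoGx. These fits used CellTiter-Glo viability from HL-60 cells in RPMI 1640 with 10% FBS, normalised to DMSO wells and wells holding 10 μM proteasome inhibitor. The full library was rescreened on 384-well plates in duplicate at five tenfold concentrations, 1–10,000 nM, with DMSO or 100 nM of one of three metabolic inhibitors, for 72 h at 37 °C, 5% CO2.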

MV4-11 [14] = test: cell viability (% survival relative to DMSO control, bortezomib = 0%); higher = less cytotoxic
How it was run: (§2)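 Percent survival figures are means of duplicate wells. They were obtained by CellTiter-Glo luminescence after 10 AML and 5 CML cell lines spent 72 h at 37 °C with 5% CO2 in 384-well plates with compounds at 1, 10, 100, 1000 or 10000 nM. Vehicle was set to 100% and a 10 µM positive control to 0%.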

HL-60 [15] = test: as above
How it was run: as §2

SHI-1 [16] = test: as above
How it was run: as §2

K-562 [17] = test: as above
How it was run: as §2

THP-1 [18] = test: as above
How it was run: as §2

KCL-22 [19] = test: as above
How it was run: as §2

KU-812 [20] = test: as above
How it was run: as §2

MOLM-13 [21] = test: as above
How it was run: as §2

ML-2 [22] = test: as above
How it was run: as §2

NOMO-1 [23] = test: as above
How it was run: as §2

HEL [24] = test: as above
How it was run: as §2

KG-1 [25] = test: as above
How it was run: as §2

CN(CCCOc1ccc(Cc2ccccc2)cc1)CCC(=O)O
Conditions | IC50 (cell viability) [µM]
BV-173 | > 10
HEL [11] | > 10
HL-60 [2] | > 10
K-562 [4] | > 10
KCL-22 [6] | > 10
KG-1 [12] | > 10
KU-812 [7] | > 10
LAMA-84 | > 10
ML-2 [9] | > 10
MOLM-13 [8] | > 10
MV4-11 [1] | > 10
Mono-Mac-6 | > 10
NOMO-1 [10] | > 10
SHI-1 [3] | > 10
THP-1 [5] | > 10

cell viability [%], HL-60 [13]
Conditions | 0.001 µM | 0.01 µM | 0.1 µM | 1 µM | 10 µM
co-treatment: AZD3965 100 nM | 98 | 101 | 112 | 99.6 | 99.54
co-treatment: DMSO vehicle | 106 | 100 | 104 | 100 | 98.6
co-treatment: GSK2194069 100 nM | 102.15 | 102 | 105.1 | 103 | 101
co-treatment: pictilisib 100 nM | 98.7 | 110 | 114 | 97.8 | 93.3

cell viability [%]
Conditions | 1 nM | 10 nM | 100 nM | 1000 nM | 10000 nM
HEL [24] | 107 | 113 | 102 | 129 | 110
HL-60 [15] | 99.9 | 102 | 120 | 191 | 115
K-562 [17] | 103 | 107 | 98.1 | 112 | 104
KCL-22 [19] | 106 | 103 | 94.8 | 116 | 110
KG-1 [25] | 94.1 | 110 | 104 | 108 | 92.6
KU-812 [20] | 99.9 | 105 | 90.9 | 106 | 94.2
ML-2 [22] | 105 | 97 | 103 | 113 | 107
MOLM-13 [21] | 119 | 122 | 91.9 | 133 | 79.1
MV4-11 [14] | 99.1 | 97.6 | 96 | 125 | 87.8
NOMO-1 [23] | 106 | 107 | 95.1 | 106 | 101
SHI-1 [16] | 106 | 102 | 116 | 115 | 110
THP-1 [18] | 104 | 103 | 96.1 | 98.4 | 102

Cc1c2c(=O)n(-c3ccccc3Cl)[nH]c2cc(=O)n1Cc1ccccn1
Conditions | IC50 (cell viability) [µM]
BV-173 | > 10
HEL [11] | > 10
HL-60 [2] | > 10
K-562 [4] | 6.52
KCL-22 [6] | > 10
KG-1 [12] | > 10
KU-812 [7] | > 10
LAMA-84 | > 10
ML-2 [9] | > 10
MOLM-13 [8] | 2.76
MV4-11 [1] | 7.5
Mono-Mac-6 | > 10
NOMO-1 [10] | > 10
SHI-1 [3] | > 10
THP-1 [5] | > 10

cell viability [%]
Conditions | 1 nM | 10 nM | 100 nM | 1000 nM | 10000 nM
HEL [24] | 77.9 | 114 | 88.2 | 103 | 106
HL-60 [15] | 71 | 96.2 | 94.5 | 90.8 | 105
K-562 [17] | 109 | 92.5 | 89.3 | 77.7 | 54
KCL-22 [19] | 60.5 | 119 | 84.4 | 94.6 | 106
KG-1 [25] | 92.4 | 105 | 89.6 | 102 | 104
KU-812 [20] | 88 | 101 | 92 | 100 | 98.1
ML-2 [22] | 86.5 | 112 | 95.4 | 98.6 | 101
MOLM-13 [21] | 84.7 | 101 | 96.7 | 71.4 | 38.5
MV4-11 [14] | 101 | 107 | 89.7 | 71.9 | 59.2
NOMO-1 [23] | 102 | 111 | 95.8 | 100 | 98.3
SHI-1 [16] | 84.3 | 103 | 95.7 | 80.8 | 75.9
THP-1 [18] | 95.8 | 113 | 99.1 | 94.2 | 96.6

COc1ccc2c(NC(=O)Nc3cccc(C(F)(F)F)n3)ccnc2c1
Conditions | IC50 (cell viability) [µM]
BV-173 | > 10
HEL [11] | > 10
HL-60 [2] | > 10
K-562 [4] | > 10
KCL-22 [6] | > 10
KG-1 [12] | > 10
KU-812 [7] | > 10
LAMA-84 | > 10
ML-2 [9] | > 10
MOLM-13 [8] | 9.04
MV4-11 [1] | > 10
Mono-Mac-6 | > 10
NOMO-1 [10] | > 10
SHI-1 [3] | > 10
THP-1 [5] | > 10

cell viability [%], HL-60 [13]
Conditions | 0.001 µM | 0.01 µM | 0.1 µM | 1 µM | 10 µM
co-treatment: AZD3965 100 nM | 100 | 99.88 | 104.1 | 101.3 | 101
co-treatment: DMSO vehicle | 101.7 | 82.9 | 103 | 103 | 111
co-treatment: GSK2194069 100 nM | 95.4 | 95.5 | 99.2 | 95.9 | 92.5
co-treatment: pictilisib 100 nM | 104 | 73.9 | 98.4 | 86.5 | 121

cell viability [%]
Conditions | 1 nM | 10 nM | 100 nM | 1000 nM | 10000 nM
HEL [24] | 116 | 99.2 | 105 | 106 | 108
HL-60 [15] | 86.5 | 129 | 116 | 116 | 98.3
K-562 [17] | 104 | 100 | 95.3 | 93.7 | 103
KCL-22 [19] | 101 | 102 | 110 | 94.9 | 114
KG-1 [25] | 90.7 | 85 | 92 | 93.9 | 120
KU-812 [20] | 116 | 102 | 108 | 109 | 112
ML-2 [22] | 101 | 97.6 | 109 | 122 | 127
MOLM-13 [21] | 105 | 115 | 113 | 108 | 44.5
MV4-11 [14] | 102 | 103 | 101 | 85.7 | 77.2
NOMO-1 [23] | 97.4 | 98.2 | 113 | 94.5 | 113
SHI-1 [16] | 93.6 | 109 | 104 | 110 | 85.4
THP-1 [18] | 95.5 | 101 | 105 | 95.2 | 107
